US20230107642A1 (Erasca, Inc., priority 2020, published 2023)

Molecular target: T1, Cys12 of the KRAS 4B G12C protein (Homo sapiens, UniProt P01116, G12C)
T1 construct: This protein contained 188 amino acids in total, including an N-terminal 6-Histidine tag; made in house; host or cells: E. coli BL21
Assay: In vitro covalent adduct formation (CAF) assay, LC-MS intact mass
Format: binding
Settings: 10 uM compound, 60 min incubation
In short: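 GDP-loaded (>95%) His-TEV-tagged KRAS 4B G12C (residues 1–169), 5 μM in TBS pH 7.4, incubated with 10 μM compound (4% DMSO) at 22° C for one hour. Intact-protein LC-MS gave free:adduct ratios, reported as percent protein modified; duplicate runs.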

Row | SMILES | % CAF 10 uM @ 60 min [%]
1 | C=CC(=O)N1[C@H](C)CN(c2nc(=O)n3c4c(c(-c5ccc(F)cc5)c(C(F)(F)F)cc24)SC[C@@H]3COC)C[C@@H]1C [Example 1103, (S)-7-((3S,5R)-4-acryloyl-3,5-dimethylpiperazin-1-yl)-10-(4-fluorophenyl)-3-(methoxymethyl)-9-(trifluoromethyl)-2,3-dihydro-5H-[1,4]thiazino[2,3,4-ij]quinazolin-5-one] | 98
2 | C=CC(=O)N1[C@H](C)CN(c2nc(=O)n3c4c(c(-c5ccc(F)cc5F)c(C(F)(F)F)cc24)SCC2(CN(CC)C2)C3)C[C@@H]1C [Example 1104, 8-((3S,5R)-4-acryloyl-3,5-dimethylpiperazin-1-yl)-11-(2,4-difluorophenyl)-1′-ethyl-10-(trifluoromethyl)-2H-spiro[[1,4]thiazepino[2,3,4-ij]quinazoline-3,3′-azetidin]-6(4H)-one] | 97.2
3 | C=CC(=O)N1[C@H](C)CN(c2nc(=O)n3c4c(c(-c5cc(Cl)c(F)cc5F)c(C(F)(F)F)cc24)SC[C@H](N2CCOCC2)C3)C[C@@H]1C [Example 1105, (3R)-8-((3S,5R)-4-acryloyl-3,5-dimethylpiperazin-1-yl)-11-(5-chloro-2,4-difluorophenyl)-3-morpholino-10-(trifluoromethyl)-3,4-dihydro-2H,6H-[1,4]thiazepino [2,3,4-ij]quinazolin-6-one] | 95.6
4 | C=CC(=O)N1CCN(c2nc(=O)n3c4c(c(-c5ccc(F)cc5)c(C(F)(F)F)cc24)SC[C@@H]3COC)CC1 [Example 1106, (S)-7-(4-acryloylpiperazin-1-yl)-10-(4-fluorophenyl)-3-(methoxymethyl)-9-(trifluoromethyl)-2,3-dihydro-5H-[1,4]thiazino[2,3,4-ij]quinazolin-5-one] | 98.2
5 | C=CC(=O)N1C[C@H](C)N(c2nc(=O)n3c4c(c(-c5ccc(F)cc5)c(C(F)(F)F)cc24)SCC2(COC2)C3)C[C@H]1C [Example 1111, 8′-((2S,5R)-4-acryloyl-2,5-dimethylpiperazin-1-yl)-11′-(4-fluorophenyl)-10′-(trifluoromethyl)-2′H,4′H,6′H-spiro[oxetane-3,3′-[1,4]thiazepino [2,3,4-ij]quinazolin]-6′-one] | 95.4
6 | C=CC(=O)N1[C@H](C)CN(c2nc(=O)n3c4c(c(-c5ccc(F)cc5)c(C(F)(F)F)cc24)SC[C@H](N2CCOCC2)C3)C[C@@H]1C [Example 1112, (R)-8-((3S,5R)-4-acryloyl-3,5-dimethylpiperazin-1-yl)-11-(4-fluorophenyl)-3-morpholino-10-(trifluoromethyl)-3,4-dihydro-2H,6H-[1,4]thiazepino [2,3,4-ij]quinazolin-6-one] | 92.4
7 | C=CC(=O)N1[C@H](C)CN(c2nc(=O)n3c4c(c(-c5ccc(F)cc5F)c(Cl)cc24)SC[C@@H]3COC)C[C@@H]1C [Example 1113, (3S)-7-((3S,5R)-4-acryloyl-3,5-dimethylpiperazin-1-yl)-9-chloro-10-(2,4-difluorophenyl)-3-(methoxymethyl)-2,3-dihydro-5H-[1,4]thiazino[2,3,4-ij]quinazolin-5-one] | 96.8
8 | C=CC(=O)N1CCN(c2nc(=O)n3c4c(c(-c5ccc(F)cc5)c(C(F)(F)F)cc24)SCC2(COC2)C3)CC1 [Example 1116, 8′-(4-acryloylpiperazin-1-yl)-11′-(4-fluorophenyl)-10′-(trifluoromethyl)-2′H,4′H,6′H-spiro[oxetane-3,3′-[1,4]thiazepino [2,3,4-ij]quinazolin]-6′-one] | 98.4
9 | C=CC(=O)N1[C@H](C)CN(c2nc(=O)n3c4c(c(-c5ccc(F)cc5)c(C(F)(F)F)cc24)SCC2(COC2)C3)C[C@@H]1C [Example 1117, 8′-((3S,5R)-4-acryloyl-3,5-dimethylpiperazin-1-yl)-11′-(4-fluorophenyl)-10′-(trifluoromethyl)-2′H,4′H,6′H-spiro[oxetane-3,3′-[1,4]thiazepino [2,3,4-ij]quinazolin]-6′-one] | 96.9
10 | C=CC(=O)N1[C@H](C)CN(c2nc(=O)n3c4c(c(-c5ccc(F)cc5)c(C(F)(F)F)cc24)SC[C@H](N2CCCC2)C3)C[C@@H]1C [Example 1118, (R)-8-((3S,5R)-4-acryloyl-3,5-dimethylpiperazin-1-yl)-11-(4-fluorophenyl)-3-(pyrrolidin-1-yl)-10-(trifluoromethyl)-3,4-dihydro-2H,6H-[1,4]thiazepino [2,3,4-ij]quinazolin-6-one] | 95.7
11 | C=CC(=O)N1C[C@H](C)N(c2nc(=O)n3c4c(c(-c5cc(Cl)c(F)cc5F)c(C(F)(F)F)cc24)SCC2(COC2)C3)C[C@H]1C [Example 1122, 8′-((2S,5R)-4-acryloyl-2,5-dimethylpiperazin-1-yl)-11′-(5-chloro-2,4-difluorophenyl)-10′-(trifluoromethyl)-2′H,4′H,6′H-spiro[oxetane-3,3′-[1,4]thiazepino [2,3,4-ij]quinazolin]-6′-one] | 74.3
12 | C=CC(=O)N1CCN(c2nc(=O)n3c4c(c(-c5ccc(F)cc5F)c(C(F)(F)F)cc24)SCC2(COC2)C3)CC1 [Example 1123, 8′-(4-acryloylpiperazin-1-yl)-11′-(2,4-difluorophenyl)-10′-(trifluoromethyl)-2′H,4′H,6′H-spiro[oxetane-3,3′-[1,4]thiazepino [2,3,4-ij]quinazolin]-6′-one] | 95.2
13 | C=CC(=O)N1[C@H](C)CN(c2nc(=O)n3c4c(c(-c5cc(Cl)c(F)cc5F)c(C(F)(F)F)cc24)SC[C@H](N2CCCC2)C3)C[C@@H]1C [Example 1129, (3R)-8-((3S,5R)-4-acryloyl-3,5-dimethylpiperazin-1-yl)-11-(5-chloro-2,4-difluorophenyl)-3-(pyrrolidin-1-yl)-10-(trifluoromethyl)-3,4-dihydro-2H,6H-[1,4]thiazepino [2,3,4-ij]quinazolin-6-one] | 69
14 | C=CC(=O)N1[C@H](C)CN(c2nc(=O)n3c4c(c(-c5ccc(F)cc5)c(C(F)(F)F)cc24)SC[C@@H](N2CCOCC2)C3)C[C@@H]1C [Example 1134, (S)-8-((3S,5R)-4-acryloyl-3,5-dimethylpiperazin-1-yl)-11-(4-fluorophenyl)-3-morpholino-10-(trifluoromethyl)-3,4-dihydro-[1,4]thiazepino [2,3,4-ij]quinazolin-6(2H)-one] | 76.8

Same assay, conditions: 10 μM compound, after 1 hour

Row | SMILES | CAF (% after 1 hour) [%]
15 | O=C1CC2CN(c3nc(=O)n4c5c(c(-c6ccc(F)cc6F)c(C(F)(F)F)cc35)SCCC4)CC(C1)N2C(=O)/C=C/CF [Example 1200, (E)-11-(2,4-difluorophenyl)-8-(9-(4-fluorobut-2-enoyl)-7-oxo-3,9-diazabicyclo[3.3.1]nonan-3-yl)-10-(trifluoromethyl)-3,4-dihydro-2H,6H-[1,4]thiazepino[2,3,4-ij]quinazolin-6-one] | 73
16 | C=CC(=O)N1C[C@H](C)N(c2nc(=O)n3c4c(c(-c5ccc(F)c(Cl)c5)c(C(F)(F)F)cc24)SC[C@@H](OC)C3)C[C@H]1C [Example 1201, (S)-8-((2S,5R)-4-acryloyl-2,5-dimethylpiperazin-1-yl)-11-(3-chloro-4-fluorophenyl)-3-methoxy-10-(trifluoromethyl)-3,4-dihydro-2H,6H-[1,4]thiazepino[2,3,4-ij]quinazolin-6-one] | 96
17 | C=CC(=O)N1C[C@H](C)N(c2nc(=O)n3c4c(c(-c5ccc(F)cc5)c(C(F)(F)F)cc24)SC[C@@H](OC)C3)C[C@H]1C [Example 1202, (S)-8-((2S,5R)-4-acryloyl-2,5-dimethylpiperazin-1-yl)-11-(4-fluorophenyl)-3-methoxy-10-(trifluoromethyl)-3,4-dihydro-2H,6H-[1,4]thiazepino[2,3,4-ij]quinazolin-6-one] | 97
18 | C=CC(=O)N1[C@H](C)CN(c2nc(=O)n3c4c(c(-c5ccc(F)cc5)c(C(F)(F)F)cc24)SC[C@@H](OCC)C3)C[C@@H]1C [Example 1203, (S)-8-((3S,5R)-4-acryloyl-3,5-dimethylpiperazin-1-yl)-3-ethoxy-11-(4-fluorophenyl)-10-(trifluoromethyl)-3,4-dihydro-2H,6H-[1,4]thiazepino[2,3,4-ij]quinazolin-6-one] | 95
19 | C=CC(=O)N1[C@H](C)CN(c2nc(=O)n3c4c(c(-c5ccc(F)c(Cl)c5)c(C(F)(F)F)cc24)SC[C@@H](OCC)C3)C[C@@H]1C [Example 1204, (S)-8-((3S,5R)-4-acryloyl-3,5-dimethylpiperazin-1-yl)-11-(3-chloro-4-fluorophenyl)-3-ethoxy-10-(trifluoromethyl)-3,4-dihydro-2H,6H-[1,4]thiazepino[2,3,4-ij]quinazolin-6-one] | 95
20 | C=CC(=O)N1[C@H](C)CN(c2nc(=O)n3c4c(c(-c5ccc(F)cc5F)c(C(F)(F)F)cc24)SC[C@@H](OCC)C3)C[C@@H]1C [Example 1205, (3S)-8-((3S,5R)-4-acryloyl-3,5-dimethylpiperazin-1-yl)-11-(2,4-difluorophenyl)-3-ethoxy-10-(trifluoromethyl)-3,4-dihydro-2H,6H-[1,4]thiazepino[2,3,4-ij]quinazolin-6-one] | 95
21 | C=CC(=O)N1[C@H](C)CN(c2nc(=O)n3c4c(c(-c5cc(Cl)c(F)cc5F)c(C(F)(F)F)cc24)SC[C@@H](OCC)C3)C[C@@H]1C [Example 1206, (3S)-8-((3S,5R)-4-acryloyl-3,5-dimethylpiperazin-1-yl)-11-(5-chloro-2,4-difluorophenyl)-3-ethoxy-10-(trifluoromethyl)-3,4-dihydro-2H,6H-[1,4]thiazepino[2,3,4-ij]quinazolin-6-one] | 92
22 | C=CC(=O)N1[C@H](C)CN(c2nc(=O)n3c4c(c(-c5ccc(F)cn5)c(C(F)(F)F)cc24)SC[C@@H](OC)C3)C[C@@H]1C [Example 1207, (S)-8-((3S,5R)-4-acryloyl-3,5-dimethylpiperazin-1-yl)-11-(5-fluoropyridin-2-yl)-3-methoxy-10-(trifluoromethyl)-3,4-dihydro-2H,6H-[1,4]thiazepino[2,3,4-ij]quinazolin-6-one] | 95
